US20090292025A1, “Novel crystalline forms of armodafinil and preparation thereof” (Teva Pharmaceutical Industries Ltd., priority 2006, published 2009)

Experiments:
[1] = Stability of the crystal form under pressure of 2-10 tons (tablet compression); type: physicochemical
Procedure: Form A is stable by pressure of about 2-10 tons which is used in the compression stage during the tablet preparation.
A further method of preparing armodafinil Form I comprises submitting armodafinil Form IV to a pressure of about 2 tons to about 10 tons to obtain armodafinil Form I. Preferably, the pressure is applied for a period of about 1 minute to about 5 minutes. The time will depend upon the amount of armodafinil Form IV; for example, armodafinil 100 mg of Form IV is pressed with 10 tons for 1 minute.
Armodafinil Form IV (100 mg) was pressed with pressure of 2 tons or 10 tons for 1 min forming a pressed sample.

[2] = Exposure to 100% relative humidity, followed by TGA and XRD; type: physicochemical
Procedure: Another embodiment of the invention encompasses armodafinil monohydrate. Armodafinil monohydrate may be prepared by a method comprising exposing armodafinil Form 1 to 100% relative humidity at a temperature of about 30° C. to about 60° C. for at least 7 days. Preferably, the heating is to a temperature of about 30° C. to about 40° C. In one example 200 mg of armodafinil Form I is heated at 30° C. in 100% relative humidity for 13 days.
X-Ray powder diffraction data were obtained by using methods known in the art. A SCINTAG powder X-ray diffractometer model X′TRA equipped with a solid-state detector was employed with copper radiation of 1.5418 Å and a round aluminum sample holder with zero background. The scanning parameters included: range: 2-40 degrees two-theta; scan mode: continuous scan; step size: 0.05 deg.; and a rate of 5 deg/min. All peak positions are within ±0.2 degrees two theta.
TGA analysis was performed using a Metler M3 thermo gravimeter. Samples of about 8 mg were analyzed in standard 150 μl alumina crucibles covered by lids with 1 hole. Each sample was scanned at a rate of 10° C./min from 25° C. to 200° C. A blank was subtracted from the sample. The oven was constantly purged with nitrogen gas at a flow rate of 40 ml/min.
Armodafinil Form A (200 mg) was exposed to 100% humidity for 7 days at 30° C. The XRD diffractogram of armodafinil Form I is illustrated in FIG. 3.

[3] = Grinding with mortar and pestle, XRD of the ground sample; type: physicochemical; settings: 100 mg ground with mortar and pestle for a few minutes
Procedure: Another method for preparing armodafinil Form I comprises grinding armodafinil Form IV. Preferably, the grinding is carried out over a period of about 1 minute to about 5 minutes, more preferably, about 1 min. Depending on the amount of armodafinil Form IV, different grinding methods may be used. For example, 200 mg of armodafinil Form IV is ground with a mortar and pestle for 1 minute.
Armodafinil Form IV (100 mg) was ground with mortar and pestle for a few minutes forming a ground sample.

[4] = Heating at 145° C., XRD of the heated sample; type: physicochemical; settings: 200 mg heated at 145° C. for 10 min
Procedure: Armodafinil Form I may also be prepared by drying armodafinil Form IV. Preferably, the process comprises heating armodafinil Form IV to a temperature of about 120° C. to 150° C. for at least about 10 minutes. Preferably, the heating is to a temperature of about 145° C. Preferably, the heating is conducted over a period of about 15 minutes about 30 minutes. For example, armodafinil Form IV 200 mg is heated for about 10 minutes. Form IV may be prepared according to WO 2004/060858.
Armodafinil Form IV (200 mg) was heated at 145° C. for 10 min forming a heated sample.

[5] = Prisinzano et al., Tetrahedron: Asymmetry (2004); cited from earlier work
[6] = Form A exposed to 100% humidity for 7 days at 30° C.
[7] = Form A, Initial (before exposure)
[8] = Form I exposed to 100% Relative Humidity at 30° C. for 13 days
[9] = Form I exposed to 100% Relative Humidity at 60° C. for 13 days
[10] = Form I, Initial (Table 1, 30° C. study)
[11] = Form I, Initial (Table 2, 60° C. study)

NC(=O)C[S@@+]([O-])C(c1ccccc1)c1ccccc1 [Armodafinil Form A, 2-[(R)-(diphenylmethyl)sulfinyl]acetamide]
Stability by pressure ([1]; pressure of about 2-10 tons, as used in the compression stage of tablet preparation): stable
% Weight loss (by TGA) [2, 6]: 3.5%
Crystal form (by XRD) [2, 6]: Form I
% Weight loss (by TGA) [2, 7]: 0.3%
Crystal form (by XRD) [2, 7]: Form A

NC(=O)C[S@@+]([O-])C(c1ccccc1)c1ccccc1 [Armodafinil Form IV, 2-[(R)-(diphenylmethyl)sulfinyl]acetamide]
Crystal form (by XRD) of ground sample [3]: Form I
Crystal form (by XRD) of pressed sample ([1]; 100 mg pressed with 2 tons or 10 tons for 1 min): Form I
Crystal form (by XRD) of heated sample [4]: Form I

NC(=O)C[S@@+]([O-])C(c1ccccc1)c1ccccc1 (single isomer, unassigned) [S enantiomer]
Elimination from the body compared with the R enantiomer [5]: three times faster

NC(=O)C[S@@+]([O-])C(c1ccccc1)c1ccccc1 [armodafinil Form I, 2-[(R)-(diphenylmethyl)sulfinyl]acetamide]
% Weight loss (by TGA) [2, 8]: 5.6%
Crystal form (by XRD) [2, 8]: Form I
% Weight loss (by TGA) [2, 9]: 7.4%
Crystal form (by XRD) [2, 9]: Form I
% Weight loss (by TGA) [2, 10]: 0.1%
Crystal form (by XRD) [2, 10]: Form I
% Weight loss (by TGA) [2, 11]: 0.1%
Crystal form (by XRD) [2, 11]: Form I
